Results published in US10787444B2, “Compounds for the modulation of myc activity” (Syros Pharmaceuticals, Inc., priority 2015, dated 2020).

Legend:
[1] = system: human small lung cancer cell line H2171; test: Cell Viability Assay (ATPlite); assay type: cell-based; conditions: Homo sapiens, NCI-H2171, 72 h, Table 2, compounds of FIG. 1; H2171 cells, three days, ATPlite; calculated IC50 class; read-out: H2171 Activity
Procedure, shortened: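 H2171 cells were plated at 20,000 cells/mL and dosed immediately by pin transfer with a 10-point dose series in DMSO. After three days at 37° C, ATPlite luminescence served as the viability readout.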

[2] = molecular target: T1, c-Myc/Max/Ebox DNA (Homo sapiens, UniProt P01106); test: c-Myc/Max/Ebox DNA AlphaScreen Assay; assay type: binding; conditions: Table 2, compounds of FIG. 1; calculated IC50 class
T1 construct: his6 (cleaved yes)
Procedure, shortened: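 Compounds were preincubated with free c-Myc (20 nM), biotinylated single-Ebox DNA (10 nM) and Ni acceptor beads before his6-Max (5 nM) and streptavidin donor beads were added. Buffer was 50 mM HEPES pH 8.0, 150 mM NaCl, BSA, Tween20, glycogen and DTT, with DMSO ≤2%. After 2 h incubation, AlphaScreen signal was read at 680 nm excitation and 520–620 nm emission.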

T1 sequence (P01106 whole entry): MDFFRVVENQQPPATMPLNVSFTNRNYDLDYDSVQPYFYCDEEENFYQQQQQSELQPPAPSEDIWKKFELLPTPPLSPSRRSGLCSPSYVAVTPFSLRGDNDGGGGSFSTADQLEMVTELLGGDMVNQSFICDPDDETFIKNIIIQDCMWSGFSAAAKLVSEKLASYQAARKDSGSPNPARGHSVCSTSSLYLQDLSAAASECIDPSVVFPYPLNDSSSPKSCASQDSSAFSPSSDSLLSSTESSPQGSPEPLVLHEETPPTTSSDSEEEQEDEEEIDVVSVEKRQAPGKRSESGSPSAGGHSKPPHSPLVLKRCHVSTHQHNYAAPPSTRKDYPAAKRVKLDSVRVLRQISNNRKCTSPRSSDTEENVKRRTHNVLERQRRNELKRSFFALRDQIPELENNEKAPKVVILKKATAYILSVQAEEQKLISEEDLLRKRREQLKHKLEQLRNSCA

Row | IC50 [1] [nM] | IC50 [2] [nM] | Compound
1 | < 300 | < 300 | COCCNCCC(=O)Nc1sc2c(c1-c1nc3ccc(-c4ccc(O)nc4)cc3s1)CCNC2 [compound 374]
2 | < 300 | < 300 | COCCNCCC(=O)Nc1sc2c(c1-c1nc3ccc(-c4ccc(C#N)nc4)cc3s1)CCNC2 [compound 391]
3 | < 300 | < 300 | COCCNCCC(=O)Nc1sc2c(c1-c1nc3cc(-c4cccc(C(=O)N(C)C)c4)ccc3s1)CCNC2 [compound 394]
4 | < 300 | < 300 | COCCNCCC(=O)Nc1sc2c(c1-c1nc3cc(-c4cnc(OC)nc4)ccc3s1)CCNC2 [compound 404]
5 | < 300 | < 300 | COCCNCCC(=O)Nc1sc2c(c1-c1nc3cc(-c4ccc(C#N)nc4)ccc3s1)CCNC2 [compound 405]
6 | < 300 | < 300 | COCCNCCC(=O)Nc1sc2c(c1-c1nc3cc(-c4ccn[nH]4)ccc3s1)CCNC2 [compound 406]
7 | < 300 | < 300 | COCCNCCC(=O)Nc1sc2c(c1-c1nc3cc(-c4ccc(C(=O)OC)nc4)ccc3s1)CCNC2 [compound 409]
8 | < 300 | < 300 | COCCNCCC(=O)Nc1sc2c(c1-c1nc3cc(-c4ccnc(N)c4)ccc3s1)CCNC2 [compound 433]
9 | < 300 | < 300 | COCCNCCC(=O)Nc1sc2c(c1-c1nc3cc(-c4cncc(N)c4)ccc3s1)CCNC2 [compound 443]
10 | < 300 | < 300 | CCOC(=O)Cn1cc(-c2ccc3sc(-c4c(NC(=O)CCNCCOC)sc5c4CCNC5)nc3c2)cn1 [compound 445]
11 | < 300 | < 300 | COCCNCCC(=O)Nc1sc2c(c1-c1nc3ccc(-c4ccnc(F)c4)cc3s1)CCNC2 [compound 456]
12 | < 300 | < 300 | COCCNCCC(=O)Nc1sc2c(c1-c1nc3cc(-c4ccnc(F)c4)ccc3s1)CCNC2 [compound 458]
13 | < 300 | < 300 | COCCNCCC(=O)Nc1sc2c(c1-c1nc3cc(-c4cnn(C(C)C)c4)ccc3s1)CCNC2 [compound 465]
14 | < 300 | < 300 | COCCNCCC(=O)Nc1sc2c(c1-c1nc3ccc(-c4cnoc4)cc3s1)CCNC2 [compound 469]
15 | < 300 | < 300 | COCCNCCC(=O)Nc1sc2c(c1-c1nc3cc(-c4cnoc4)ccc3s1)CCNC2 [compound 481]
16 | < 300 | < 300 | COCCNCCC(=O)Nc1sc2c(c1-c1nc3ccc(-c4cccc(C(=O)NCCN(C)C)c4)cc3s1)CCNC2 [compound 493]
17 | < 300 | < 300 | COCCNCCC(=O)Nc1sc2c(c1-c1nc3ccc(-c4ccc(N5CCNCC5)nc4)cc3s1)CCNC2 [compound 504]
18 | < 300 | < 300 | CC(C)NCCC(=O)Nc1sc2c(c1-c1nc3c(-c4cnn(C)c4)cccc3s1)CCNC2 [compound 515]
19 | < 300 | < 300 | CC(C)NCCC(=O)Nc1sc2c(c1-c1nc3c(Br)cccc3s1)CCNC2 [compound 516]
20 | < 300 | < 300 | CC(C)NCCC(=O)Nc1sc2c(c1-c1nc3c(-c4cccnc4)cccc3s1)CCNC2 [compound 534]
21 | < 300 | < 300 | CC(C)NCCC(=O)Nc1sc2c(c1-c1nc3c(-c4ccncc4)cccc3s1)CCNC2 [compound 535]
22 | < 300 | < 300 | CC(C)NCCC(=O)Nc1sc2c(c1-c1nc3c(S(C)(=O)=O)cccc3s1)CCNC2 [compound 553]
23 | < 300 | < 300 | COCCNCCC(=O)Nc1sc2c(c1-c1nc3c(Br)cccc3s1)CCNC2 [compound 559]
24 | < 300 | < 300 | COCCNCCC(=O)Nc1sc2c(c1-c1nc3c(C#N)cccc3s1)CCNC2 [compound 568]
25 | < 300 | < 300 | CC(C)NCCC(=O)Nc1sc2c(c1-c1nc3cc(NS(C)(=O)=O)ccc3s1)CCNC2 [compound 581]
26 | < 300 | < 300 | COCCNCCC(=O)Nc1sc2c(c1-c1nc3c(CO)cccc3s1)CCNC2 [compound 598]
27 | < 300 | < 300 | CCc1cccc2nc(-c3c(NC(=O)CCNCCOC)sc4c3CCNC4)sc12 [compound 599]
28 | < 300 | < 300 | COCCNCCC(=O)Nc1sc2c(c1-c1nc3c(NC4COC4)cccc3s1)CCNC2 [compound 600]
29 | < 300 | < 300 | COCCNCCC(=O)Nc1sc2c(c1-c1nc3c(C(F)(F)F)cccc3s1)CCNC2 [compound 611]

Row | Compound | IC50 [1] [nM] | IC50 [2] [nM]
30 | COCCNCCC(=O)Nc1sc2c(c1-c1nc3ccc(C4=CCNCC4)cc3s1)CCNC2 [compound 459] | < 300 | < 300
31 | COCCNCCC(=O)Nc1sc2c(c1-c1nc3cc(C4=CCNCC4)ccc3s1)CCNC2 [compound 497] | < 300 | < 300
